Patent US10538555B2, “Macrocyclic inhibitors of the PD-1/PD-L1 and CD80(B7-1)/PD-L1 protein/protein interactions” (BRISTOL-MYERS SQUIBB COMPANY, priority 2014, dated 2020)
Like-named read-outs stand apart in the source and are kept apart here. *1 amine or outer side, *2 acyl side, *3 side chain or, on linkers, in order; H or OH if unused. Where a SMILES comes first, the peptide text is derived from it. Bridges are numbered along the chain shown (N, C = ends). [ ]: non-standard residue; d: D form. ξ: configuration not given here. Phe(3,4,5-F3) = N[C@@H](Cc1cc(F)c(F)c(F)c1)C(=O)O; Phe(3,4-F2) = N[C@@H](Cc1ccc(F)c(F)c1)C(=O)O; Phe(4-F) = N[C@@H](Cc1ccc(F)cc1)C(=O)O; d(cisHyp) = O=C(O)[C@H]1C[C@@H](O)CN1; Bta = N[C@@H](Cc1csc2ccccc12)C(=O)O; Hyp = O=C(O)[C@@H]1C[C@@H](O)CN1; NMeF = CN[C@@H](Cc1ccccc1)C(=O)O; X1 = O=C([C@H]1COCCN1[*:1])[*:2]; dNMeF = CN[C@H](Cc1ccccc1)C(=O)O; hIle(4ξ) = CCC(C)C[C@H](N)C(=O)O; dHyp = O=C(O)[C@H]1C[C@H](O)CN1; NMeNle = CCCC[C@H](NC)C(=O)O; NMeV = CN[C@H](C(=O)O)C(C)C; ξY = NC(Cc1ccc(O)cc1)C(=O)O; Pip = O=C(O)[C@@H]1CCCCN1; dPip = O=C(O)[C@H]1CCCCN1; hSer = N[C@@H](CCO)C(=O)O; NMeA = CN[C@@H](C)C(=O)O; Orn = NCCC[C@H](N)C(=O)O; Dab = NCC[C@H](N)C(=O)O; Dap = NC[C@H](N)C(=O)O; ξC = NC(CS)C(=O)O; Sar = CNCC(=O)O

Target: T1, Human PD-L1/PD-1 (Homo sapiens, UniProt Q9NZQ7)
T1 construct: TVMV protease cleavage site (C); made in house; host or cells: HEK293T cells
Assay: HTRF Human PD-L1/PD-1 binding assay (PD-1-Ig/PD-L1-His)
Settings: PD-L1-His 10 nM, PD-1-Ig 20 nM
How it was run: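 Step 1: compound with PD-L1-His (10 nM final), 15 min. Step 2: PD-1-Ig (20 nM final), 15 min. Step 3: Eu-cryptate anti-Ig (1 nM) plus APC anti-His (20 nM), 30 min equilibration. Signal taken as 665 nm/620 nm ratio.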

[1] = class symbol, read-out: HTRF Human PD-L1/PD-1 Binding Assay IC50 Range
[2] = read-out: HTRF Human PD-L1/PD-1 Binding Assay IC50

T1 sequence (Q9NZQ7 with tags, fused parts or gaps): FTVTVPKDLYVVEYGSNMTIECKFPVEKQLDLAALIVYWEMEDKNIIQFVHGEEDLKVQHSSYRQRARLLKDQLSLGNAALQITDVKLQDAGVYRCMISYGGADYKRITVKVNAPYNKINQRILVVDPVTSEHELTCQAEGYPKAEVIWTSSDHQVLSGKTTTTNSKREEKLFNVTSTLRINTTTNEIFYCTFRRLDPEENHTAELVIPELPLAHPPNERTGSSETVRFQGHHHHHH

CCCC[C@H]1C(=O)N(C)[C@@H](CCCC)C(=O)N[C@@H](CCC(=O)O)C(=O)N[C@H](C(=O)NCC(N)=O)CSCC(=O)N[C@@H](Cc2ccc(O)cc2)C(=O)N(C)[C@@H](C)C(=O)N[C@@H](CC(N)=O)C(=O)N2CCC[C@H]2C(=O)N[C@@H](CN)C(=O)N[C@@H](CC(C)C)C(=O)N2C[C@H](O)C[C@H]2C(=O)N[C@@H](Cc2c[nH]c3ccccc23)C(=O)N[C@@H](CCN)C(=O)N[C@@H](Cc2c[nH]c3ccccc23)C(=O)N1C [Example 5161] ({CH2CO}-Y[NMeA]NP[Dap]L[Hyp]W[Dab]W[NMeNle][NMeNle]ECG-NH2; thioether N-14)
IC50 [1]: 1 to 9.9 nM

CCCC[C@H]1C(=O)N[C@@H](CC(N)=O)C(=O)N2CCC[C@H]2C(=O)N[C@@H](CO)C(=O)N[C@@H](CCO)C(=O)N2C[C@H](O)C[C@H]2C(=O)N[C@@H](Cc2c[nH]c3ccccc23)C(=O)N[C@@H](CCCN)C(=O)N[C@@H](Cc2c[nH]c3ccccc23)C(=O)N(C)[C@@H](C)C(=O)N(C)CC(=O)N[C@@H](CCCNC(=N)N)C(=O)NC(C(=O)NCC(N)=O)CSCC(=O)N[C@@H](Cc2ccc(O)cc2)C(=O)N1C (stereo partly drawn) [Example 10207] ({CH2CO}-Y[NMeNle]NPS[hSer][Hyp]W[Orn]W[NMeA][Sar]R[ξC]G-NH2; thioether N-14)
IC50 [1]: 1000 to 10000 nM

CCCC[C@H]1C(=O)N2C[C@H](O)C[C@@H]2C(=O)N[C@@H](CC(=O)O)C(=O)N[C@@H](C(C)C)C(=O)N(C)[C@@H](Cc2ccccc2)C(=O)N[C@@H](CC(N)=O)C(=O)N2C[C@H](O)C[C@@H]2C(=O)N[C@@H](Cc2c[nH]c3ccccc23)C(=O)NC(Cc2ccc(O)cc2)C(=O)N[C@@H](CCC(=O)O)C(=O)N[C@H](C(=O)NCC(N)=O)CSCC(=O)N[C@@H](Cc2ccc(F)c(F)c2)C(=O)N(C)[C@@H](Cc2ccccc2)C(=O)N1C (stereo partly drawn) [Example 9317] ({CH2CO}-[Phe(3,4-F2)][NMeF][NMeNle][d(cisHyp)]DV[NMeF]N[d(cisHyp)]W[ξY]ECG-NH2; thioether N-13)
IC50 [1]: 1 to 9.9 nM

CCCC[C@H]1C(=O)N(C)[C@@H](C)C(=O)N[C@@H](CCCNC(=N)N)C(=O)NC(C(=O)NCC(N)=O)CSCC(=O)N[C@@H](Cc2ccc(O)cc2)C(=O)N(C)[C@@H](C)C(=O)N[C@@H](CC(N)=O)C(=O)N2CCC[C@H]2C(=O)N[C@@H](Cc2cnc[nH]2)C(=O)N[C@H](CO)C(=O)N2CCC[C@H]2C(=O)N[C@@H](Cc2c[nH]c3ccccc23)C(=O)N[C@@H](CO)C(=O)N[C@@H](Cc2csc3ccccc23)C(=O)N1C (stereo partly drawn) [Example 9118] ({CH2CO}-Y[NMeA]NPH[dS]PWS[Bta][NMeNle][NMeA]R[ξC]G-NH2; thioether N-14)
IC50 [2]: 27 nM

CCCC[C@H]1C(=O)N2CCC[C@@H]2C(=O)N[C@@H](CC(=O)O)C(=O)N[C@@H](C(C)C)C(=O)N(C)[C@@H](C(C)C)C(=O)N[C@@H](Cc2ccc(O)cc2)C(=O)N2CCCC[C@@H]2C(=O)N[C@@H](Cc2c[nH]c3ccccc23)C(=O)N[C@@H](Cc2ccc(O)cc2)C(=O)N[C@@H](CC(C)CC)C(=O)N[C@H](C(=O)NCC(N)=O)CSCC(=O)N[C@@H](Cc2ccc(F)cc2)C(=O)N(C)[C@@H](Cc2ccccc2)C(=O)N1C (stereo partly drawn) [Example 9242] ({CH2CO}-[Phe(4-F)][NMeF][NMeNle][dP]DV[NMeV]Y[dPip]WY[hIle(4ξ)]CG-NH2; thioether N-13)
IC50 [1]: 1000 to 10000 nM

CCCC[C@H]1C(=O)N2C[C@H](O)C[C@@H]2C(=O)N[C@@H](CC(=O)O)C(=O)N[C@@H](C(C)C)C(=O)N(C)[C@H](Cc2ccccc2)C(=O)N[C@@H](CCC(N)=O)C(=O)N2C[C@H](O)C[C@@H]2C(=O)N[C@@H](Cc2c[nH]c3ccccc23)C(=O)N[C@@H](Cc2ccc(O)cc2)C(=O)N[C@@H](CCCN)C(=O)N[C@H](C(=O)NCC(N)=O)CSCC(=O)N[C@@H](Cc2ccc(F)c(F)c2)C(=O)N(C)[C@@H](Cc2ccccc2)C(=O)N1C [Example 9303] ({CH2CO}-[Phe(3,4-F2)][NMeF][NMeNle][d(cisHyp)]DV[dNMeF]Q[d(cisHyp)]WY[Orn]CG-NH2; thioether N-13)
IC50 [1]: 1 to 9.9 nM

CCCC[C@H]1C(=O)N(C)[C@@H](CCCC)C(=O)N[C@@H](C)C(=O)N[C@H](C(=O)NCC(N)=O)CSCC(=O)N[C@@H](Cc2ccc(O)cc2)C(=O)N2CCCC[C@H]2C(=O)N[C@@H](CC(=O)O)C(=O)N2CCC[C@H]2C(=O)N[C@@H](CN)C(=O)N[C@@H](CC(C)C)C(=O)N2C[C@H](O)C[C@H]2C(=O)N[C@@H](Cc2c[nH]c3ccccc23)C(=O)N[C@@H](CO)C(=O)N[C@@H](Cc2c[nH]c3ccccc23)C(=O)N1C [Example 1523] ({CH2CO}-Y[Pip]DP[Dap]L[Hyp]WSW[NMeNle][NMeNle]ACG-NH2; thioether N-14)
IC50 [1]: 1 to 9.9 nM

CCCC[C@H]1C(=O)N(C)[C@@H](CCCC)C(=O)N[C@@H](CC(C)C)C(=O)N[C@H](C(=O)NCC(N)=O)CSCC(=O)N[C@@H](Cc2ccc(O)cc2)C(=O)N(C)[C@@H](C)C(=O)N[C@@H](CC(N)=O)C(=O)N2CCC[C@H]2C(=O)N[C@@H](Cc2c[nH]cn2)C(=O)N[C@@H](CCC(=O)O)C(=O)N2C[C@H](O)C[C@H]2C(=O)N[C@@H](Cc2c[nH]c3ccccc23)C(=O)N[C@H](C)C(=O)N[C@@H](Cc2csc3ccccc23)C(=O)N1C [Example 5169] ({CH2CO}-Y[NMeA]NPHE[Hyp]W[dA][Bta][NMeNle][NMeNle]LCG-NH2; thioether N-14)
IC50 [1]: 1 to 9.9 nM

CCCC[C@H]1C(=O)N(C)[C@@H](CCCC)C(=O)N[C@@H](CO)C(=O)NC(C(=O)NCC(N)=O)CSCC(=O)N[C@@H](Cc2ccc(O)cc2)C(=O)N(C)[C@@H](C)C(=O)N[C@@H](CC(N)=O)C(=O)N2CCC[C@H]2C(=O)N[C@@H](CC(N)=O)C(=O)N[C@@H](CC(C)C)C(=O)N2C[C@H](O)C[C@H]2C(=O)N[C@@H](Cc2c[nH]c3ccccc23)C(=O)N[C@@H](CO)C(=O)N[C@@H](Cc2c[nH]c3ccccc23)C(=O)N1C (stereo partly drawn) [Example 9142] ({CH2CO}-Y[NMeA]NPNL[Hyp]WSW[NMeNle][NMeNle]S[ξC]G-NH2; thioether N-14)
IC50 [1]: 1 to 9.9 nM

CCCC[C@H]1C(=O)N2C[C@H](O)C[C@@H]2C(=O)N[C@@H](CC(=O)O)C(=O)N[C@@H](C(C)C)C(=O)N(C)[C@@H](Cc2ccccc2)C(=O)N[C@@H](CC(=O)O)C(=O)N2C[C@H](O)C[C@@H]2C(=O)N[C@@H](Cc2c[nH]c3ccccc23)C(=O)N[C@@H](Cc2ccc(O)cc2)C(=O)N[C@@H](CCC(=O)O)C(=O)N[C@H](C(=O)NCC(N)=O)CSCC(=O)N[C@@H](Cc2cc(F)c(F)c(F)c2)C(=O)N(C)[C@@H](Cc2ccccc2)C(=O)N1C [Example 9349] ({CH2CO}-[Phe(3,4,5-F3)][NMeF][NMeNle][d(cisHyp)]DV[NMeF]D[d(cisHyp)]WYECG-NH2; thioether N-13)
IC50 [1]: 10 to 99.9 nM

CCCC[C@H]1C(=O)N[C@@H](CCC(N)=O)C(=O)N2CCCC[C@@H]2C(=O)N[C@@H](Cc2c[nH]c3ccccc23)C(=O)N[C@@H](Cc2ccc(O)cc2)C(=O)N[C@@H](CC(C)C)C(=O)N[C@H](C(=O)NCC(N)=O)CSCC(=O)N[C@@H](Cc2ccc(F)cc2)C(=O)N(C)[C@@H](Cc2ccccc2)C(=O)N(C)[C@@H](CCCC)C(=O)N2CCC[C@@H]2C(=O)N[C@@H](CC(=O)O)C(=O)N[C@@H](C(C)C)C(=O)N1C [Example 9216] ({CH2CO}-[Phe(4-F)][NMeF][NMeNle][dP]DV[NMeNle]Q[dPip]WYLCG-NH2; thioether N-13)
IC50 [1]: 10 to 99.9 nM

CCCC[C@H]1C(=O)N2CCC[C@@H]2C(=O)N[C@@H](CC(=O)O)C(=O)N[C@@H](C(C)C)C(=O)N(C)[C@@H](Cc2ccccc2)C(=O)N[C@@H](Cc2ccc(O)cc2)C(=O)N2CCC[C@@H]2C(=O)N[C@@H](Cc2c[nH]c3ccccc23)C(=O)N[C@@H](Cc2ccc(O)cc2)C(=O)N[C@@H](CC(=O)O)C(=O)N[C@H](C(=O)NCC(N)=O)CSCC(=O)N[C@@H](Cc2cc(F)c(F)c(F)c2)C(=O)N(C)[C@@H](Cc2ccccc2)C(=O)N1C [Example 10099] ({CH2CO}-[Phe(3,4,5-F3)][NMeF][NMeNle][dP]DV[NMeF]Y[dP]WYDCG-NH2; thioether N-13)
IC50 [1]: 1 to 9.9 nM

CCCC[C@H]1C(=O)N2C[C@@H](O)C[C@@H]2C(=O)N[C@@H](CC(=O)O)C(=O)N[C@@H](C(C)C)C(=O)N(C)[C@@H](Cc2ccccc2)C(=O)N[C@@H](CCC(=O)O)C(=O)N2C[C@H](O)C[C@@H]2C(=O)N[C@@H](Cc2c[nH]c3ccccc23)C(=O)N[C@@H](Cc2ccc(O)cc2)C(=O)N[C@@H](CCCN)C(=O)N[C@H](C(=O)NCC(N)=O)CSCC(=O)N[C@@H](Cc2cc(F)c(F)c(F)c2)C(=O)N(C)[C@@H](Cc2ccccc2)C(=O)N1C [Example 9370] ({CH2CO}-[Phe(3,4,5-F3)][NMeF][NMeNle][dHyp]DV[NMeF]E[d(cisHyp)]WY[Orn]CG-NH2; thioether N-13)
IC50 [2]: 5.7 nM

CCCC[C@H]1C(=O)N2CCOC[C@@H]2C(=O)N[C@@H](CC(=O)O)C(=O)N[C@@H](C(C)C)C(=O)N(C)[C@@H](Cc2ccccc2)C(=O)N[C@@H](Cc2ccc(O)cc2)C(=O)N2CCC[C@@H]2C(=O)N[C@@H](Cc2c[nH]c3ccccc23)C(=O)N[C@@H](Cc2ccc(O)cc2)C(=O)N[C@@H](CCOC)C(=O)N[C@H](C(=O)NCC(N)=O)CSCC(=O)N[C@@H](Cc2cc(F)c(F)c(F)c2)C(=O)N(C)[C@@H](Cc2ccccc2)C(=O)N1C [Example 10185] ({CH2CO}-[Phe(3,4,5-F3)][NMeF][NMeNle][X1]DV[NMeF]Y[dP]WY[hSer](Me)CG-NH2; thioether N-13)
IC50 [1]: 1 to 9.9 nM

CCCC[C@H]1C(=O)N2C[C@H](O)C[C@@H]2C(=O)N[C@@H](CC(=O)O)C(=O)N[C@@H](C(C)C)C(=O)N(C)[C@@H](Cc2ccccc2)C(=O)N[C@@H](Cc2ccc(O)cc2)C(=O)N2C[C@H](O)C[C@@H]2C(=O)N[C@@H](Cc2c[nH]c3ccccc23)C(=O)N[C@@H](Cc2ccc(O)cc2)C(=O)N[C@@H](CC(C)C)C(=O)N[C@H](C(=O)NCC(N)=O)CSCC(=O)N[C@@H](Cc2cc(F)c(F)c(F)c2)C(=O)N(C)[C@@H](Cc2ccccc2)C(=O)N1C [Example 9367] ({CH2CO}-[Phe(3,4,5-F3)][NMeF][NMeNle][d(cisHyp)]DV[NMeF]Y[d(cisHyp)]WYLCG-NH2; thioether N-13)
IC50 [1]: 10 to 99.9 nM
